Key:
Assay type in all cases: functional, cell-based
[1] = test system: NTERA-2-cl-D1; assay: Proapoptotic activity in human NT2/D1 cells by annexin V-FITC/propidium iodide staining-based capillary cytometric method
[2] = test system: BJ; assay: Proapoptotic activity in human BJ cells by annexin V-FITC/propidium iodide staining-based capillary cytometric method
[3] = test system: ASPC1; assay: Proapoptotic activity in human AsPC1 cells by annexin V-FITC/propidium iodide staining-based capillary cytometric method
[4] = test system: BXPC-3; assay: Proapoptotic activity in human BxPC3 cells by annexin V-FITC/propidium iodide staining-based capillary cytometric method

EC50 [1]: 13 µM | EC50 [3]: 27 µM | EC50 [4]: 28 µM
SMILES: Nc1nc(-c2cccc(NC(=O)c3cc4cc(F)ccc4[nH]3)c2)c[nH]1
EC50 [2]: 16 µM
